Source: article doi:10.1101/208439v1 (biorxiv, 2017)

Columns and labels:
PRDM9 = PRDM9 (Homo sapiens, UniProt Q9NQV7); conditions: read-out: DA3003-1 IC50; inhibitor
PRMT6 = PRMT6 (Homo sapiens, UniProt Q96LA8); conditions: read-out: DA3003-1 IC50; inhibitor
GLP = target: T1, GLP (Homo sapiens, UniProt Q9H9B1); assay: biochemical; conditions: read-out: DA3003-1 IC50; inhibitor
T1 construct: gene EHMT1
T1 sequence (Q9H9B1 1-1298): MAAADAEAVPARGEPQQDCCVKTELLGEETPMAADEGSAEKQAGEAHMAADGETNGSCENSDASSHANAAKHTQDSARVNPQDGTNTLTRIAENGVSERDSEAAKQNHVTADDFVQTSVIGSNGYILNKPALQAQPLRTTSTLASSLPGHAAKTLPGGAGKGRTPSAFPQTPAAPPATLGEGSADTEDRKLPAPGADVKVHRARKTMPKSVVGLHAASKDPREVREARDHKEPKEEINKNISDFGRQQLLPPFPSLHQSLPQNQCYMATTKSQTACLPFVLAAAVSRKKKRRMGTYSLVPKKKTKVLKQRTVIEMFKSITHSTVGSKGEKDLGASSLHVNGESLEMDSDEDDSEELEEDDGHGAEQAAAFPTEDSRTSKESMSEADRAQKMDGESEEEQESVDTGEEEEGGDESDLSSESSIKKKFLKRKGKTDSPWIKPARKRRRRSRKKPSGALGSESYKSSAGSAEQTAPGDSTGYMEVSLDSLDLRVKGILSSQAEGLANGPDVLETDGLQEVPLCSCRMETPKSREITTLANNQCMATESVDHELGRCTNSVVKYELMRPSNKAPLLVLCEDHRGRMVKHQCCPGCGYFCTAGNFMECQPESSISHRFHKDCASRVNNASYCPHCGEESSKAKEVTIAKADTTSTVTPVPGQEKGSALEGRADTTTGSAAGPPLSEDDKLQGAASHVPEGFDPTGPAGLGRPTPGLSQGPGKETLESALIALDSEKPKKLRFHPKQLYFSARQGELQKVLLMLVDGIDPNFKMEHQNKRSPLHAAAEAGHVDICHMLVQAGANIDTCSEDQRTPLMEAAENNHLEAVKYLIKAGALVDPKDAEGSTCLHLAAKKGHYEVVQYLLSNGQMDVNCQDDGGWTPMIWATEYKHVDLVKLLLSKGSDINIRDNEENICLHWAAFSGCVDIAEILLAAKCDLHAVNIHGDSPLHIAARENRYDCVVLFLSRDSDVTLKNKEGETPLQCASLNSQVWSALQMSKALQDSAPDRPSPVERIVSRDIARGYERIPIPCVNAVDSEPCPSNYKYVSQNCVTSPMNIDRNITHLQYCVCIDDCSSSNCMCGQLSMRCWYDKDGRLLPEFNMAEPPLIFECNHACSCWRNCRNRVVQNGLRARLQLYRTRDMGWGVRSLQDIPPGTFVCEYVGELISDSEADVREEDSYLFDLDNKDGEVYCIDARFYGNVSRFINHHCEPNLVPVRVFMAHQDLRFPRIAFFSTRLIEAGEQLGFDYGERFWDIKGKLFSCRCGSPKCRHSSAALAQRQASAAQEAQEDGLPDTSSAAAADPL

MLL3 Complex = MLL3 Complex (Homo sapiens, UniProt Q8NEZ4); assay: HotSpot [3H]SAM filter-binding methyltransferase assay; type: biochemical; parameters: gene KMT2C; complex assembled as MLL1; MLL3 His tag, E. coli; with WD repeat-containing protein 5; Set1/Ash2 histone methyltransferase complex subunit ASH2; Protein dpy-30 homolog; conditions: core histone, […] SAM, pH […] MgCl2, […] DTT, […] °C, single experiment
Sequence of MLL3 Complex (Q9C005 whole entry): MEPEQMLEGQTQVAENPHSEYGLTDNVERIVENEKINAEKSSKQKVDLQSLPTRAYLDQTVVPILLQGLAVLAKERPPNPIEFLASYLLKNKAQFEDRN
Sequence of MLL3 Complex (Q8NEZ4 4689-4911): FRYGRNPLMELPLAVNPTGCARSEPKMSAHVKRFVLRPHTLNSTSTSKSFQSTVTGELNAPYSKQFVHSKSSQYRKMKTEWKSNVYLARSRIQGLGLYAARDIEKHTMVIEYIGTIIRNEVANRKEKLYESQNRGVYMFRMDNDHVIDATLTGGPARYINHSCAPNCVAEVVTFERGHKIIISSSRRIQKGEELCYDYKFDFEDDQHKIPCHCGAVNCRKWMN
Sequence of MLL3 Complex (Q9UBL3 96-628, further chain): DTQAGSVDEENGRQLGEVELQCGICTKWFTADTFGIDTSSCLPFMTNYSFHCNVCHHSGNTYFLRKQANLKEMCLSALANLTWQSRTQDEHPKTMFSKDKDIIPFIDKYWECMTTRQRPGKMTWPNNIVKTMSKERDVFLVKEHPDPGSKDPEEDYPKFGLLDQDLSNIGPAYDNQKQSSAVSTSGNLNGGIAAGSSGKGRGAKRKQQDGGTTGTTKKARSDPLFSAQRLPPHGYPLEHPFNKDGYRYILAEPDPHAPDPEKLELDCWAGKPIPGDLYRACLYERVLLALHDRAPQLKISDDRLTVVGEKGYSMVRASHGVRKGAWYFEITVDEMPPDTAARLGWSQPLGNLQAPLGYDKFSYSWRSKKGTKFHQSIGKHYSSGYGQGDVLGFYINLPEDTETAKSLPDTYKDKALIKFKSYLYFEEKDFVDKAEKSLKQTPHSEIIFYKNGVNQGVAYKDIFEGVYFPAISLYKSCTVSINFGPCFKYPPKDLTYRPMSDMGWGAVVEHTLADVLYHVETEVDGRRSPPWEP
Sequence of MLL3 Complex (Q15291 whole entry, further chain): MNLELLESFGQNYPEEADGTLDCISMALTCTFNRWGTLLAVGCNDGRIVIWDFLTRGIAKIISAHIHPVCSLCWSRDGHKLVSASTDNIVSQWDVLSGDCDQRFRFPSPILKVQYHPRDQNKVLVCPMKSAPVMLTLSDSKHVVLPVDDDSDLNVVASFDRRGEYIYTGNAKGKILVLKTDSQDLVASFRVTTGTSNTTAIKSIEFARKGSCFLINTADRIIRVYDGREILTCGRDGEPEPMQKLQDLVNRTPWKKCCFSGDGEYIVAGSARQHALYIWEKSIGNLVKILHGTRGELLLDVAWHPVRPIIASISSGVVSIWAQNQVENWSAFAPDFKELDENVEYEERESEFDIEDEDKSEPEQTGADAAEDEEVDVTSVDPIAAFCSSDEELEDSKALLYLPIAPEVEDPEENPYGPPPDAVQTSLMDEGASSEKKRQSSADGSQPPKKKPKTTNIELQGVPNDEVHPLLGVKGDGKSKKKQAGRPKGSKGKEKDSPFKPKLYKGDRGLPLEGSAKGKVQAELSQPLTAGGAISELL

PRMT5/MEP50 Complex = target: T2, PRMT5/MEP50 Complex (Homo sapiens, UniProt O14744); assay: as above; type: biochemical; conditions: histone H2A, […] SAM, pH […] DTT, […] °C, single experiment
T2 construct: coexpressed Flag-PRMT5 and His-MEP50, insect cell/baculovirus; with Methylosome protein WDR77
T2 sequence (O14744 2-637): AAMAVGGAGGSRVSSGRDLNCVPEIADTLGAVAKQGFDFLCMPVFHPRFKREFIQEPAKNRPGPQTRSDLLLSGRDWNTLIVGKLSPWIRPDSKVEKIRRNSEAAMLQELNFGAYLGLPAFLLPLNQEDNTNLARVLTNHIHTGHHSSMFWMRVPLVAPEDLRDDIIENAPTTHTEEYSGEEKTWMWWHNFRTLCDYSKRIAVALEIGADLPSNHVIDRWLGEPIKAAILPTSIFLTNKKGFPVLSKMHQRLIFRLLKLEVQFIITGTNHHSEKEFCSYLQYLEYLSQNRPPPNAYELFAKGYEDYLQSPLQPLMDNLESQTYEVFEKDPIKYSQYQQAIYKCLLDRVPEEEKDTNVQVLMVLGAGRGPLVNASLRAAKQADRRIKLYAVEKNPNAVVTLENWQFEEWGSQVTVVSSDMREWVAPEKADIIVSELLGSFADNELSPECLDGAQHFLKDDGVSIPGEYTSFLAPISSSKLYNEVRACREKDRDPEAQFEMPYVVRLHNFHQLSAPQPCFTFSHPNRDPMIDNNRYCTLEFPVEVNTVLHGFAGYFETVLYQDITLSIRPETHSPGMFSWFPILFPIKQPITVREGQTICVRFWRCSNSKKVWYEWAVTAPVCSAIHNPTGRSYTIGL
T2 sequence (Q9BQA1 2-342 partner): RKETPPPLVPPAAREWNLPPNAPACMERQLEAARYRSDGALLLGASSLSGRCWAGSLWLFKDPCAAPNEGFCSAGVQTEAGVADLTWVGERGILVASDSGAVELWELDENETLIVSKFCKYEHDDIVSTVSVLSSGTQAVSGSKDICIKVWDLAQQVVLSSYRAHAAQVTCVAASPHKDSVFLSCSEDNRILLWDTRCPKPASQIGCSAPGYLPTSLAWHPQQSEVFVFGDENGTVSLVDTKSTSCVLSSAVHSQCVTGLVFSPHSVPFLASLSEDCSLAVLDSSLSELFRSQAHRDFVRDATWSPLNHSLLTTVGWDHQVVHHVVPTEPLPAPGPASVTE

Sequence of PRDM9 (Q9NQV7 whole entry): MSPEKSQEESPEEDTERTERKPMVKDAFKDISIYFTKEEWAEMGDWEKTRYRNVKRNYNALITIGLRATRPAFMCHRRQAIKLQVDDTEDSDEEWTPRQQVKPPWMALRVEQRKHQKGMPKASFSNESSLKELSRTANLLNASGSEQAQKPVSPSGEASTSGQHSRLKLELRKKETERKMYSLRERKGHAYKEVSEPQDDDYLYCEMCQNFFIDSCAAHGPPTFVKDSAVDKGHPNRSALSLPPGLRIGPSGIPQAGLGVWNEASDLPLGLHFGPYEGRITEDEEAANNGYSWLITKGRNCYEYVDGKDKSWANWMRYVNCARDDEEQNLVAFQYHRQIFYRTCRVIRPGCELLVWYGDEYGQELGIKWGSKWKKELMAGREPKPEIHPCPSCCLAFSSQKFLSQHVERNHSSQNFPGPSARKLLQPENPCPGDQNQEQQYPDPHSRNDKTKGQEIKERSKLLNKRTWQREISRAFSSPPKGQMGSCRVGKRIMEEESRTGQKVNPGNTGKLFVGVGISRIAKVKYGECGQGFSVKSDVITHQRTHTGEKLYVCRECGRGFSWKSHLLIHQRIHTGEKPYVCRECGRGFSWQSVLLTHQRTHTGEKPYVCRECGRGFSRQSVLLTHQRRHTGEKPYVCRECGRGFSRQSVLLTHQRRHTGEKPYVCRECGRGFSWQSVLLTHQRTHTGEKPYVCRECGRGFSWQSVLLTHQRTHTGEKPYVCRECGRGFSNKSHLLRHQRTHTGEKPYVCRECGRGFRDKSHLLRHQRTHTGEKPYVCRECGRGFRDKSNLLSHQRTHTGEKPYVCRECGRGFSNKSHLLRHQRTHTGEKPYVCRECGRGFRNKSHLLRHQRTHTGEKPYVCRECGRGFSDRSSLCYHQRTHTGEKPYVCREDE
Sequence of PRMT6 (Q96LA8 whole entry): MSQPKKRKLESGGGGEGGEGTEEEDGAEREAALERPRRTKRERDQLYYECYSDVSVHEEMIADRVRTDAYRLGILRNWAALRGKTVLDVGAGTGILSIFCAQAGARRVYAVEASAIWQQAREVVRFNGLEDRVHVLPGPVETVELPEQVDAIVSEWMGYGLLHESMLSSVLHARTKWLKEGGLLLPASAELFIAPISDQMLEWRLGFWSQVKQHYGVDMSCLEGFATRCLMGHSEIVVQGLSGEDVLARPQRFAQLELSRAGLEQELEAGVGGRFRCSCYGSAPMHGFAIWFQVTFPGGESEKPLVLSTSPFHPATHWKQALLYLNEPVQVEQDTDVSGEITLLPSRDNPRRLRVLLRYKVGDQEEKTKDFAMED

IC50 (PRDM9) [nM]	IC50 (PRMT6) [nM]	IC50 (GLP) [nM]	IC50 (MLL3 Complex) [nM]	IC50 (PRMT5/MEP50 Complex) [nM]	SMILES
370	1000	36000			O=C1C(Cl)=C(NCCN2CCOCC2)C(=O)c2ncccc21 [DA3003-1]
			63000	330	COc1cccc(-n2nc(C(=O)O)cc2-c2ccc(C3CCCCC3)c(Cl)c2)c1 [TC LPA5 4]
